PMC6443933, “Antagonizing Retinoic Acid-Related-Orphan Receptor Gamma Activity Blocks the T Helper 17/Interleukin-17 Pathway Leading to Attenuated Pro-inflammatory Human Keratinocyte and Skin Responses” (Frontiers in Immunology, 2019)

Tests used:
[1] = test system: CD4+ CD25 high gated PBMCs; assay: FoxP3 expression in CD4+ CD25 high T-cells under Treg inducing conditions; type: cell-based, human; settings: 96 h Treg inducing conditions, vs DMSO
Method: PBMCs from freshly drawn heparinized blood originating from healthy volunteers were isolated by density gradient centrifugation using Ficoll Paque (GE). PBMCs (1 × 10^5/well) were incubated for 96 h in the presence of DMSO or Cpd A (1 μM) together with anti-CD3 (3 ng/ml, clone OKT-3, BioXcell), anti-CD28 (30 ng/ml, clone CD28.2, BioLegend), TGF-β1 (0.2 ng/ml, Biolegend), IL-2 (15 ng/ml, Biolegend), anti-IFN-γ antibody (5 μg/ml, Biolegend), and anti-IL-4 (5 μg/ml, Biolegend). Cells were prepared for CD4/CD25 surface staining, followed by intracellular FoxP3 staining.
For FoxP3 detection within the CD4^+ CD25 high T-cells, surface staining was performed for 20 min with FITC labeled CD4 antibody and anti-CD25 BV421 antibody (BD Bioscience). After surface staining, the cells were washed, fixed and permeabilized according to the manufacturer's instructions (eBioscience) prior to intracellular staining with APC labeled FoxP3 antibody (eBioscience). Data were acquired on a LSR Fortessa (BD Bioscience) and analyzed using FlowJo software (Tree Star). FoxP3 expression was determined in gated CD4^+ CD25 high T-cells that were treated with DMSO or with Cpd A.

total human CD4+ T-cells = assay: Th17 polarization of total CD4+ T-cells, cytokine ELISA; type: cell-based; settings: for IL-17 concentration in Th17 cell supernatants: 72 h
Method: Total, naive and memory CD4^+ T cells were isolated from Peripheral blood mononuclear cells (PBMCs) from healthy volunteers by density gradient centrifugation using Ficoll Paque (GE). Total, naive or memory CD4^+ T-cells were prepared by immunomagnetic separation using the respective CD4^+ T-cell enrichment kits resulting in untouched highly purified subsets (EasySep™, Stem Cell). Purity was assessed by flow cytometry and was between 95 and 98% for the total CD4^+ T-cells. The purity of naive (CD45RA^+CD45RO^−) and memory (CD45RA^−CD45RO^+) CD4^+T-cells ranged between 95 and 98%, respectively. For T-cell stimulation experiments, cells were treated as previously published ([44]). Briefly, T-cells were stimulated with plate-bound monoclonal antibodies against CD3 (1 μg/ml, clone OKT-3, BioXcell) and CD28 (1 μg/ml, clone CD28.2, BioLegend). For Th17 polarization assays, IL-6 (20 ng/ml), TGF-β1 (5 ng/ml), IL-1β (10 ng/ml), and IL-23 (10 ng/ml) were added. For Th1 polarization assays, IL-12 (10 ng/ml) and anti-IL-4 antibody (5 μg/ml), for Th2 polarizations, IL-4 (10 ng/ml) and anti-IFN-γ antibody (5 μg/ml) were added. For Th0 polarization assays, cells were only stimulated with CD3 and CD28 antibodies. Supernatants were collected after 3 or 7 days of incubation for total or naive/memory CD4^+ T-cell polarizations, respectively. Cytokine concentrations were quantified by ELISA according to the manufacturer's instructions (eBioscience or BioLegend).

RORγt-LBD = biological target: T1, RORγt-LBD (Homo sapiens, UniProt P51449); assay: RORγt-LBD/GAL4 transactivation reporter gene assay in Jurkat T-cells; type: cell-based
T1 construct: luciferase reporter gene transcription is driven by the GAL4-RORγt-LBD fusion construct; expressed in transfected cells; host or cells: Jurkat cells stably carrying pGL4.35 (9 x GAL4 sites, luciferase)
T1 sequence (P51449 269-508 limits assumed): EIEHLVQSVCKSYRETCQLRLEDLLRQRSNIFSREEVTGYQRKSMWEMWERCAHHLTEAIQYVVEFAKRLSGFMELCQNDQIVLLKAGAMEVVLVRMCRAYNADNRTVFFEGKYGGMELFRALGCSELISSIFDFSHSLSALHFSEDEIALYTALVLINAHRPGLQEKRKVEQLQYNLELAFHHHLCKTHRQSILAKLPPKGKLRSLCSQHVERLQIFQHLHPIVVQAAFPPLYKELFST
Method: Selectivity against other ROR family members was assessed in a GAL4 reporter gene assay as previously described ([44]). Briefly, Jurkat cells stably expressing the pGL4.35 plasmid (Promega) containing nine GAL4 binding sites inducing the transcription of the luciferase reporter gene were transiently transfected with the human RORα, RORβ or RORγt-LBD/GAL4-DBD constructs. After 24 h post-transfection, cells were incubated with Cpd A for an additional 24 h before luciferase activity was determined using an EnVision Multilabel Plate Reader (Perkin Elmer).

[2] = test system: T2, RORγt binding to RORE DNA binding sites; assay: RORE oligonucleotide pull-down assay; type: cell-based, human; settings: 10 μM, HUT78-RORγt nuclear extracts, anti-CD3/PMA 2 h, vs DMSO
T2 construct: HUT78 T-cells stably expressing full-length eGFP-RORγt; eGFP; expressed in transfected cells
Method: In order to detect RORγt binding to its cognate DNA binding sites, biotinylated oligonucleotide probes containing putative 4 × RORE or mutated-RORE DNA sequences were synthesized (Microsynth, Switzerland) and annealed in order to form a double stranded DNA probe. The probes contained the following sequences (where the bold nucleotides represent a putative RORγt binding site or the mutated form of the RORE):
Nuclear extracts originating from HUT78 cells stably expressing eGFP-RORγt were prepared as previously described ([45]). Briefly, cells were incubated with Cpd A (10 μM final concentration) for 0.5 h followed by a 2 h-stimulation period using CD3 antibody (2.5 μg/ml, clone OKT-3, BioXcell) plus PMA (8 ng/ml, Sigma). Nuclear lysates were generated using a nuclear extraction kit (Pierce, Thermo scientific), followed by a pre-clearing step with streptavidin-sepharose beads (GE healthcare Amersham) for 1 h at 4°C. The supernatants were incubated with biotinylated double-stranded RORE or with mutated RORE probes (10 nM final concentration) for 1 h at 4°C, followed by addition of a 50% slurry of streptavidin-sepharose beads for 1 h. The bound complexes were washed five times with 1 ml buffer consisting of 50 mM Tris-HCl, 1 mM EDTA, 1% NP-40, 150 mM NaCl and protease inhibitors (Roche). […]

[3] = test system: HUT78 T-cells stably expressing full-length eGFP-RORγt; assay: IL-17A / IL-2 production by RORγt transduced HUT78 T-cell line; type: cell-based, human

IC50 (total human CD4+ T-cells; Homo sapiens, T-cell, total CD4+ T-cells, Th17 polarization 72 h, ELISA, read-out: IC50, IL-17A secretion): 39 nM
inhibition of GAL4 promoter activity (RORγt-LBD): complete inhibition
IC50 (RORγt-LBD; luciferase, 24 h with compound): 95 nM
RORγt association with the ROR elements [2]: still intact
IC50 ([3]; Homo sapiens, PMA plus anti-CD3, 48 h, ELISA): 27 nM
Structure (SMILES): Cc1ccc(C(=O)Nc2cn3ccnc3c(CN3CCN(c4noc(C(C)(C)C)n4)[C@@H](C)C3)c2C)cn1 [Cpd A, (S)-N-(8-((4-(5-(tert-butyl)-1,2,4-oxadiazol-3-yl)-3-methylpiperazin-1-yl)methyl)-7-methylimidazo[1,2-a]pyridin-6-yl)-6-methylnicotinamide]
FoxP3 expression [1]: did not result in altered FoxP3 expression
IL-17 concentration in Th17 cell supernatants (total human CD4+ T-cells; 0.13 nM (pharmacologically inactive concentration)): 600 pg/mL
IL-17 concentration in Th17 cell supernatants (total human CD4+ T-cells; 10 μM (active concentration)): 150 pg/mL
TNF-α concentration in Th17 cell supernatants (total human CD4+ T-cells; similar at low or high compound concentrations): 4 ng/mL
IL-2 cytokine production ([3]; PMA plus anti-CD3, 48 h, ELISA): not affected
attenuation of IL-17A production ([3]; concentration-dependent): complete attenuation
